Measurements published in ChEMBL document CHEMBL4340507, “Identification of an indol-based multi-target kinase inhibitor through phenotype screening and target fishing using inverse virtual screening approach” (Eur J Med Chem, 2019).
Active and inactive are the calls of the source. No cut-off for these calls is given here.

Legend:
[1] = tested on: IEC-6; test: Induction of ROS generation in rat IEC-6 cells at 0.1 to 0.6 uM measured after 24 hrs by H2DCF-DA staining-based FACS analysis; type: cell-based; conditions: iec-6, 24 h
[2] = tested on: PC-3; test: Antiproliferative activity against human PC3 cells assessed as decrease in cell viability measured after 72 hrs by MTT assay; type: functional, cell-based; conditions: PC-3, 72 h
[3] = tested on: IEC-6; test: Cell cycle arrest in rat IEC-6 cells assessed as accumulation at G0/G1-phase at 0.1 to 0.6 uM after 24 hrs by propidium iodide staining-based FACS analysis; type: ADME; conditions: iec-6, 24 h
[4] = target: Receptor tyrosine-protein kinase erbB-4 (Homo sapiens, UniProt Q15303); test: Inhibition of recombinant human N-terminal GST-His6-fused ERBB4 C-terminal domain (R676 to V1307 residues) expressed in Sf9 cells using Poly(Glu:Tyr)4:1 as substrate measured after 60 mins in presence of [gamma-33P]-ATP by scintillation counting method
[5] = tested on: HeLa; test: Inhibition of ERK phosphorylation in human HeLa cells at 0.1 to 0.6 uM after 24 hrs by FACS analysis; type: cell-based
[6] = target: Rho-associated protein kinase 1 (Homo sapiens, UniProt Q13464); test: Inhibition of recombinant human ROCK1 measured after 60 mins in presence of [gamma-33P]-ATP by scintillation counting method
[7] = target: 3-phosphoinositide-dependent protein kinase 1 (Homo sapiens, UniProt O15530); test: Inhibition of recombinant human N-terminal His6-fused PDK1 (M1 to M460 residues) expressed in Sf9 insect cells using tetra(LRRWSLG) peptide as substrate measured after 60 mins in presence of [gamma-33P]-ATP by scintillation counting method
Chain of 3-phosphoinositide-dependent protein kinase 1 (O15530 whole entry, the tested form may be a part): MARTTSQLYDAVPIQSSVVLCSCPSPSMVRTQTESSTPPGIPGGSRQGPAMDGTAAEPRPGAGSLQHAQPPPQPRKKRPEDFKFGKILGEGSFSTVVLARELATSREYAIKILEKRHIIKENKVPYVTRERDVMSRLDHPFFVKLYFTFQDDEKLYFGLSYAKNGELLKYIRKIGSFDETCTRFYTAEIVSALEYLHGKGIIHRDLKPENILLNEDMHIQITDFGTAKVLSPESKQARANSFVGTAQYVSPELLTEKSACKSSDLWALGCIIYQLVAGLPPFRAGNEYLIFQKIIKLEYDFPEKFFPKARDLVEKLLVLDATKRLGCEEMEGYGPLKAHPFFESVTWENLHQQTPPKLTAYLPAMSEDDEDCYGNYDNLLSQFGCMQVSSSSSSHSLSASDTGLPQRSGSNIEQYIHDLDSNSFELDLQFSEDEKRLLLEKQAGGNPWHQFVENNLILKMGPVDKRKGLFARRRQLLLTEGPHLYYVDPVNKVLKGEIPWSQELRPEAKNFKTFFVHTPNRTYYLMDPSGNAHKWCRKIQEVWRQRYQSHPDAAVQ

[8] = tested on: HeLa; test: Induction of apoptosis in human HeLa cells assessed as effect on PARP level at 0.1 to 0.6 uM after 24 hrs by FACS analysis; type: functional, cell-based
[9] = tested on: MCF7; test: Antiproliferative activity against human MCF7 cells assessed as decrease in cell viability measured after 72 hrs by MTT assay; type: functional, cell-based; conditions: MCF7, 72 h
[10] = tested on: IEC-6; test: Induction of apoptosis in rat IEC-6 cells assessed as increase in caspase 3 level at 0.1 to 0.6 uM after 24 hrs by FACS analysis; type: cell-based; conditions: iec-6, 24 h
[11] = target: Fibroblast growth factor receptor 3 (Homo sapiens, UniProt P22607); test: Inhibition of recombinant human wild-type N-terminal GST-His6-fused FGFR3 C-terminal domain (R397 to T806 residues) expressed in Sf9 insect cells using TRK-C derived peptide as substrate measured after 60 mins in presence of [gamma-33P]-ATP by scintillation counting method
Chain of Fibroblast growth factor receptor 3 (P22607 whole entry, the tested form may be a part): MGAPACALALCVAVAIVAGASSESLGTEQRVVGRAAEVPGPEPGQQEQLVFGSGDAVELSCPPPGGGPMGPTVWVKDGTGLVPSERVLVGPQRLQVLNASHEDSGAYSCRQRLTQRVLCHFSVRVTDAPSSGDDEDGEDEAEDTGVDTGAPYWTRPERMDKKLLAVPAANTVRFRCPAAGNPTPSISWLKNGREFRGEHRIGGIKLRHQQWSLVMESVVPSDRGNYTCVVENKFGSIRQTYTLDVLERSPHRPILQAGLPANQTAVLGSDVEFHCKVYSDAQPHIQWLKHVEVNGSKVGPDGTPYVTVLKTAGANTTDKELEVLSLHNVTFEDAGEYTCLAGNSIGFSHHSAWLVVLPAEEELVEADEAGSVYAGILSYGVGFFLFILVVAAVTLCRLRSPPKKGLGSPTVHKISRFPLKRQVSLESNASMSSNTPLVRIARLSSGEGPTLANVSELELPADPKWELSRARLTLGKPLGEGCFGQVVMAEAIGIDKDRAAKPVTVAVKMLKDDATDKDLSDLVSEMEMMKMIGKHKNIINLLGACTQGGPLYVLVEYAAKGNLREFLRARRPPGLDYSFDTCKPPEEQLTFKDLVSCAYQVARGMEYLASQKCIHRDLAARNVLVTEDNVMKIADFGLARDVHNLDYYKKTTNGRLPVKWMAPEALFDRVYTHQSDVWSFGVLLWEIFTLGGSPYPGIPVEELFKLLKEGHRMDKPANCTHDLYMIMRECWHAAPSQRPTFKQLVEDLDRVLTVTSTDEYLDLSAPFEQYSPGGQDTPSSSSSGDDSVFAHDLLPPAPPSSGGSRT

[12] = target: Mitogen-activated protein kinase kinase kinase 1 (Homo sapiens, UniProt Q13233); test: Inhibition of recombinant human N-terminal 4xFLAG-tagged/C-terminal His8 fused MAP3K1 C-terminal domain (M1193 to W1512 residues) expressed in Sf9 insect cells using Bio-RS-Peptide as substrate measured after 60 mins in presence of [gamma-33P]-ATP by scintillation counting method
Chain of Mitogen-activated protein kinase kinase kinase 1 (Q13233 whole entry, the tested form may be a part): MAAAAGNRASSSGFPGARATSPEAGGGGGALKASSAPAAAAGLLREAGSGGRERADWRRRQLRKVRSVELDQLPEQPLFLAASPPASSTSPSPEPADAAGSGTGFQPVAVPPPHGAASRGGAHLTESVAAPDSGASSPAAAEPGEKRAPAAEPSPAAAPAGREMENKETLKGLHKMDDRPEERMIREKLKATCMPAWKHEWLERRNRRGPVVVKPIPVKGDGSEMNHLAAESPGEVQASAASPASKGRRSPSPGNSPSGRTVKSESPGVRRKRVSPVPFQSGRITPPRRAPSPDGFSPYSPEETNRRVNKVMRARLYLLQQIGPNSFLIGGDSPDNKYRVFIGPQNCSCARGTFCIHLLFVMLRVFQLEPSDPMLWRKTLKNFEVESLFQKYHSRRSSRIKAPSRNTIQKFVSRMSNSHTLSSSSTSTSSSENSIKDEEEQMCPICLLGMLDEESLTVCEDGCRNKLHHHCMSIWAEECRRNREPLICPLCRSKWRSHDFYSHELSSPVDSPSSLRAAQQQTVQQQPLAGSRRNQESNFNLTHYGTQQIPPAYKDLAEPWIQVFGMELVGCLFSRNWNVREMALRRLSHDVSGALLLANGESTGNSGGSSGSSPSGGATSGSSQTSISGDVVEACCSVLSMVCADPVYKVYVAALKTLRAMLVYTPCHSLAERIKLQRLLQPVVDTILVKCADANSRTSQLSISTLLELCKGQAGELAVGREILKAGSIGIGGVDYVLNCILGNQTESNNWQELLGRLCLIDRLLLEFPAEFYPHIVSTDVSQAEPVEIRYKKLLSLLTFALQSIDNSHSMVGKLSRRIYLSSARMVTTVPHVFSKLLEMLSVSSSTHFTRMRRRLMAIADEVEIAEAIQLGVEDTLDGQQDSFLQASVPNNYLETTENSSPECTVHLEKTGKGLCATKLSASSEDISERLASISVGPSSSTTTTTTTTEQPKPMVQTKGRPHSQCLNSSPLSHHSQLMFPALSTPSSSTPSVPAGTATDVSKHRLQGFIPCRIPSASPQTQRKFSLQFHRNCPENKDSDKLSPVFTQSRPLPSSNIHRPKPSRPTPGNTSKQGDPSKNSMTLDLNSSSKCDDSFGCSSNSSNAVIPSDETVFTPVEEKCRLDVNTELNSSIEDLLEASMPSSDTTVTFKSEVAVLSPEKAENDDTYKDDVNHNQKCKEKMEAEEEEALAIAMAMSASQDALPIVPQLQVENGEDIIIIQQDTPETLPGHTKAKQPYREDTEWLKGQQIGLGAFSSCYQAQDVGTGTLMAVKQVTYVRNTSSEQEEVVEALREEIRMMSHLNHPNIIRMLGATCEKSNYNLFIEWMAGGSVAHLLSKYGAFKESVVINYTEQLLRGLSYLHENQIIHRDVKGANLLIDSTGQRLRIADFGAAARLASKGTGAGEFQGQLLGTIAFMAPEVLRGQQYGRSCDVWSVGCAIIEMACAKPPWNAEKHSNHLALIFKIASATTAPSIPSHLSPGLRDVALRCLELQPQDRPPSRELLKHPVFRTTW

[13] = target: Mitogen-activated protein kinase 1 (Homo sapiens, UniProt P28482); test: Inhibition of recombinant human full-length untagged ERK2 (M1 to S360 residues) expressed in Escherichia coli using recombinant ELK1 as substrate measured after 60 mins in presence of [gamma-33P]-ATP by scintillation counting method
Chain of Mitogen-activated protein kinase 1 (P28482 whole entry, the tested form may be a part): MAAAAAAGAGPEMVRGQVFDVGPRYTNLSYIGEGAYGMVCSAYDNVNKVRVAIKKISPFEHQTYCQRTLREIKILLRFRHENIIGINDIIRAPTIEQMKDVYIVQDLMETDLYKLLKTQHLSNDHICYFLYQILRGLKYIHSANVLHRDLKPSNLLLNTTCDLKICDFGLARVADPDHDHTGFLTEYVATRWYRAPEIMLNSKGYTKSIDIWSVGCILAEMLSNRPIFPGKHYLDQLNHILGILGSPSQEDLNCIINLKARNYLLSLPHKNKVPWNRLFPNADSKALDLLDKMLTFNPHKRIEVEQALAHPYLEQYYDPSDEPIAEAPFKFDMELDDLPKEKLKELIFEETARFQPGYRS

[14] = target: Vascular endothelial growth factor receptor 1 (Homo sapiens, UniProt P17948); test: Inhibition of recombinant human N-terminal GST-tagged VEGFR1 C-terminal domain (K784 to I1338 residues) expressed in Sf9 insect cells using Poly(Glu:Tyr)4:1 as substrate measured after 60 mins in presence of [gamma-33P]-ATP by scintillation counting method
[15] = target: Fibroblast growth factor receptor 1 (Homo sapiens, UniProt P11362); test: Inhibition of recombinant human wild-type N-terminal GST-His6-fused FGFR1 C-terminal domain (G400 to R820 residues) expressed in Sf9 insect cells using Poly(Glu:Tyr)4:1 as substrate measured after 60 mins in presence of [gamma-33P]-ATP by scintillation counting method
[16] = target: Mast/stem cell growth factor receptor Kit (Homo sapiens, UniProt P10721); test: Inhibition of recombinant human wild-type N-terminal GST-His6-fused KIT C-terminal domain (T544 to V976 residues) expressed in Sf9 insect cells using TRK-C derived peptide as substrate measured after 60 mins in presence of [gamma-33P]-ATP by scintillation counting method
[17] = target: Vascular endothelial growth factor receptor 2 (Homo sapiens, UniProt P35968); test: Inhibition of recombinant human N-terminal GST-fused VEGFR2 C-terminal domain (D807 to V1356 residues) expressed in Sf9 insect cells using Poly(Glu:Tyr)4:1 as substrate measured after 60 mins in presence of [gamma-33P]-ATP by scintillation counting method
[18] = target: High affinity nerve growth factor receptor (Homo sapiens, UniProt P04629); test: Inhibition of recombinant human wild-type N-terminal GST-His6-fused TRKA C-terminal domain (G443 to G796 residues) expressed in Sf9 insect cells using TRK-C derived peptide as substrate measured after 60 mins in presence of [gamma-33P]-ATP by scintillation counting method
Chain of High affinity nerve growth factor receptor (P04629 whole entry, the tested form may be a part): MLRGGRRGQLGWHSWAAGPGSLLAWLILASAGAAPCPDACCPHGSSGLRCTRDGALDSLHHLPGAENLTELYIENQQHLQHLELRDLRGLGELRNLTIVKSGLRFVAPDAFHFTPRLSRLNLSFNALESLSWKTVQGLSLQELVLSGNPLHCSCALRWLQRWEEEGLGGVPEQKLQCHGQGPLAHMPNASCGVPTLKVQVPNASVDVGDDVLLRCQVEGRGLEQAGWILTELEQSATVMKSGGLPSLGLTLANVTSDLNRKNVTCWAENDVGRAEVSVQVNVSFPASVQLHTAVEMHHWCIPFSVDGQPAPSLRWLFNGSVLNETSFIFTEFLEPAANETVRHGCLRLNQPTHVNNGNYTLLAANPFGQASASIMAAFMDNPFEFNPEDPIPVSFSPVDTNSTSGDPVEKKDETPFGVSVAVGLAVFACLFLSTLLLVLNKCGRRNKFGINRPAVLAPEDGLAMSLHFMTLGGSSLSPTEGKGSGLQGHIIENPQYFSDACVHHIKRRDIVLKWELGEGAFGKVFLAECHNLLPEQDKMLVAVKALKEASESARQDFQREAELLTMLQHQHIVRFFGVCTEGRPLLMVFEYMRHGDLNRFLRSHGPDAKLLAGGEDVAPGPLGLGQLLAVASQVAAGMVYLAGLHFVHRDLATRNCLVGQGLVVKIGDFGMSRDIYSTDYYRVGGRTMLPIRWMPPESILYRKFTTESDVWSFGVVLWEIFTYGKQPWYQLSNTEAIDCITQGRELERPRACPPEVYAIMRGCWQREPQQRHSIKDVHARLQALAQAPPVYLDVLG

[19] = tested on: HeLa; test: Induction of ROS generation in human HeLa cells at 0.1 to 0.6 uM measured after 24 hrs by H2DC-DA probe-based FACS analysis; type: functional, cell-based
[20] = tested on: HeLa; test: Induction of apoptosis in human HeLa cells assessed as increase in caspase 3 level at 0.1 to 0.6 uM after 24 hrs by FACS analysis; type: functional, cell-based
[21] = target: Mitogen-activated protein kinase 7 (Homo sapiens, UniProt Q13164); test: Inhibition of recombinant human N-terminal FLAG-tagged/C-terminal His8 fused ERK5 internal fragment domain (L5 to Q397 residues) expressed in Sf9 insect ells using RBER-CHKtide as substrate measured after 60 mins in presence of [gamma-33P]-ATP by scintillation counting method
Chain of Mitogen-activated protein kinase 7 (Q13164 whole entry, the tested form may be a part): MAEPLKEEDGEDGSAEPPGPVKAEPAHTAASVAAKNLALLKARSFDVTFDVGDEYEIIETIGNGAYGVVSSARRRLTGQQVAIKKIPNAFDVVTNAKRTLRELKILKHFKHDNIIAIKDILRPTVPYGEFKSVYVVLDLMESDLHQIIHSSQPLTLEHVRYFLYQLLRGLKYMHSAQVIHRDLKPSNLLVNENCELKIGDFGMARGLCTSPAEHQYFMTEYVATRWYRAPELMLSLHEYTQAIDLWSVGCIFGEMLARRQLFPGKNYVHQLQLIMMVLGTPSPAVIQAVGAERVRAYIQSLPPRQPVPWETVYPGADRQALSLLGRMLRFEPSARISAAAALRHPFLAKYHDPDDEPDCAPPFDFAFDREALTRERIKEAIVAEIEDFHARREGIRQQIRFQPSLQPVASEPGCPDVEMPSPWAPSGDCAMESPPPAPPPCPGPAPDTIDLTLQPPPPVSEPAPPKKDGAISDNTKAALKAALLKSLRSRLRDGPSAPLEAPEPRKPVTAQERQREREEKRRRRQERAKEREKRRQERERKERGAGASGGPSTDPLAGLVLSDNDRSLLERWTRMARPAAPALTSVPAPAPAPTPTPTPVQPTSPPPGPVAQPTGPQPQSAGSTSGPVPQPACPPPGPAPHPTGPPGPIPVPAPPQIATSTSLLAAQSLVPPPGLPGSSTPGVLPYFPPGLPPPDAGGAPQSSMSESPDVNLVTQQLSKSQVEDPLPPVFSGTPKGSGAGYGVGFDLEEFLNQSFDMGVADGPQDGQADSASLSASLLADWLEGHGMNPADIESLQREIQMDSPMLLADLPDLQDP

[22] = target: Fibroblast growth factor receptor 4 (Homo sapiens, UniProt P22455); test: Inhibition of recombinant human N-terminal GST-His6-fused FGFR4 (R391 to T802 residues) expressed in baculovirus infected Sf9 cells using Poly(Glu:Tyr)4:1 as substrate measured after 60 mins in presence of [gamma-33P]-ATP by scintillation counting method
[23] = tested on: HeLa; test: Down regulation of ERK expression in human HeLa cells at 0.1 to 0.6 uM after 24 hrs by FACS analysis; type: functional, cell-based
[24] = target: Fibroblast growth factor receptor 2 (Homo sapiens, UniProt P21802); test: Inhibition of recombinant human N-terminal GST-His6-fused FGFR2 C-terminal domain (R400 to T822 residues) expressed in Sf9 insect cells using TRK-C derived peptide as substrate measured after 60 mins in presence of [gamma-33P]-ATP by scintillation counting method
[25] = tested on: HeLa; test: Antiproliferative activity against human HeLa cells assessed as decrease in cell viability measured after 72 hrs by MTT assay; type: functional, cell-based

CN(CCc1ccc(-c2ccccc2)cc1)Cc1cn(C)c2ccc(C(=O)Nc3ccc(F)cc3)cc12
Activity [1]: Toxic | IC50 [2]: 16.9 µM | Activity [3]: Toxic | IC50 [4]: 7.9 µM | inhibition [5]: Active | IC50 [6]: 35 µM | IC50 [7]: 11 µM | Activity [8]: inactive | IC50 [9]: 2160 nM | Activity [10]: Toxic | IC50 [11]: 6.3 µM | IC50 [12]: 66 µM | IC50 [13]: 66 µM | IC50 [14]: 43 µM | IC50 [15]: 13 µM | IC50 [16]: 11 µM | IC50 [17]: 31 µM | IC50 [18]: 16 µM | Activity [19]: Active | Activity [20]: Active | IC50 [21]: 90 µM | IC50 [22]: 11 µM | Activity [23]: Active | IC50 [24]: 23 µM | IC50 [25]: 330 nM
